Oligonucleotides are written 5' to 3', each unit as a sugar letter and its base; * is a phosphorothioate linkage, no mark a phosphodiester; rarer units and linkages stand in square brackets, end groups in braces. Plain capitals give the bases only. m = 2'-O-methyl; f = 2'-fluoro
Test system: C3 mRNA
Experiment: Dual dose screen, C3 mRNA knockdown in HepG2 cells (bDNA assay)
Assay type: cell-based, human
Settings: 24 h; for KD @ 0.1 nM: 0.1 nM siRNA; for KD @ 10 nM: 10 nM siRNA
Procedure: HepG2 cells were obtained from ATCC (ATCC in partnership with LGC Standards, Wesel, Germany, cat. #ATCC-HB-8065) and cultured in MEM Eagle (#M2279, Sigma-Aldrich, Germany), supplemented to contain 10% fetal calf serum (#1248D, Biochrom GmbH, Berlin, Germany), 1× non-essential amino acids (#K0293; Biochrom, Berlin, Germany), 4 mM L-Glutamine (#K0283, Biochrom, Berlin, Germany) and 100 U/ml Penicillin/100 μg/ml Streptomycin (#A2213, Biochrom GmbH, Berlin, Germany) at 37° C. in an atmosphere with 5% C02 in a humidified incubator.
For transfection of HepG2 cells with siRNAs, cells were seeded at a density of 15,000 cells/well into collagen-coated 96-well tissue culture plates (#655150, GBO, Germany). Transfection of siRNA was carried out with Lipofectamine RNAiMax (Invitrogen/Life Technologies, Karlsruhe, Germany) according to manufacturer's instructions for reverse transfection directly after seeding. In this experiment, a dual dose screen was performed with siRNAs in quadruplicates at 10 nM and 0.1 nM, respectively. siRNAs targeting Aha1 served at the same time as an unspecific control for C3 target mRNA expression and as a positive control to analyze transfection efficiency with regards to Aha1 mRNA level. Firefly-Luciferase and Renilla-Luciferase was used as a mock transfection.
After 24 h of incubation with siRNAs, medium was removed and cells were lysed in 150 μl Medium-Lysis Mixture (1 volume lysis mixture, 2 volumes cell culture medium) and then incubated at 53° C. for 30 minutes. bDNA assay (ThermoFisher QuantiGene RNA assays) was performed according to manufacturer's instructions with a probeset directed to human C3 (accession-#NM_000064 between base 106 and base 907 of the sequence) which had been designed by ThermoFisher Scientific, and synthesized by Metabion International AG, Planegg, Germany. Luminescence was read using 1420 Luminescence Counter (WALLAC VICTOR Light, Perkin Elmer, Rodgau-Jugesheim, Germany) following 30 minutes incubation at room temperature in the dark.
Aha1-siRNA served as an unspecific control for C3 mRNA expression and as a positive control to analyze the transfection efficiency by measuring Aha1 mRNA level by hybridization with an Aha1 probeset. The Aha-1 siRNA used had been formerly selected from a big set of candidate siRNAs, and is known to be very active in vitro and in vivo. Transfection efficiency for each 96-well plate was calculated by analysis of Aha1-knock-down with Aha1-siRNA (normalized to GapDH) compared to an unspecific control. […] Transfection efficiency with siAha1 at the 10 nM dose was about 90%, and the transfection efficiency at the 0.5 nM dose was about 85%.
Activity of the siRNAs was measured by the fluorescence or percent mRNA concentration of the respective targets. For each well, the target mRNA level was normalized to the respective GAPDH mRNA level. The activity of a given siRNA was expressed as percent mRNA concentration of the respective target (normalized to GAPDH mRNA) in treated cells, relative to the target mRNA concentration (normalized to GAPDH mRNA) averaged across control wells.

1 (sense mU*mC*fAmAmCmUfCfAfCmCmUfGmUmAmAmUfAmAmA; antisense mU*fU*mUmAmUmUmAmCmAmGmGmUmGfAmGmUmUmGmA*mU*mU; siRNA) [compound 1]
KD @ 0.1 nM: 68%
KD @ 10 nM: 92%

4 (sense mU*mC*fCmAmAmGfCfCfUmUmGfGmCmUmCmAfAmUmA; antisense mU*fA*mUmUmGmAmGmCmCmAmAmGmGfCmUmUmGmGmA*mU*mU; siRNA) [compound 4]
KD @ 0.1 nM: 66%
KD @ 10 nM: 94%

9 (sense mA*mU*fCmGmGmAfUfCfUmUmCfAmCmCmGmUfCmAmA; antisense mU*fU*mGmAmCmGmGmUmGmAmAmGmAfUmCmCmGmAmU*mU*mU; siRNA) [compound 9]
KD @ 0.1 nM: 63%
KD @ 10 nM: 91%

10 (sense mU*mC*fAmAmCmUfUfCfCmUmCfCmUmGmCmGfAmAmA; antisense mU*fU*mUmCmGmCmAmGmGmAmGmGmAfAmGmUmUmGmA*mU*mU; siRNA) [compound 10]
KD @ 0.1 nM: 84%
KD @ 10 nM: 88%

16 (sense mC*mA*fAmUmGmAfCfUfUmUmGfAmCmGmAmGfUmAmA; antisense mU*fU*mAmCmUmCmGmUmCmAmAmAmGfUmCmAmUmUmG*mU*mU; siRNA) [compound 16]
KD @ 0.1 nM: 67%
KD @ 10 nM: 92%

22 (sense mC*mC*fAmAmCmUfAfCfAmUmGfAmAmCmCmUfAmCmA; antisense mU*fG*mUmAmGmGmUmUmCmAmUmGmUfAmGmUmUmGmG*mU*mU; siRNA) [compound 22]
KD @ 0.1 nM: 67%
KD @ 10 nM: 93%
